# Reference: US20190169140A1, “IDO1 INHIBITOR AND PREPARATION METHOD AND APPLICATION THEREOF” (SHANDONG LUYE PHARMACEUTICAL CO., LTD., priority 2016, published 2019)
# Key:
# [1] = biological target: T1, IDO1 enzyme in Hela cells (Homo sapiens, UniProt P14902); test: Test of hIDO1 for cytological activity (Hela cell kynurenine by LCMS, interferon-γ induced); format: cell-based; details: interferon-γ 100 ng/ml, 20 hours
# T1 construct: endogenous in cells; host or cells: Hela cells, induced with recombinant human interferon-γ
# T1 sequence (P14902 whole entry): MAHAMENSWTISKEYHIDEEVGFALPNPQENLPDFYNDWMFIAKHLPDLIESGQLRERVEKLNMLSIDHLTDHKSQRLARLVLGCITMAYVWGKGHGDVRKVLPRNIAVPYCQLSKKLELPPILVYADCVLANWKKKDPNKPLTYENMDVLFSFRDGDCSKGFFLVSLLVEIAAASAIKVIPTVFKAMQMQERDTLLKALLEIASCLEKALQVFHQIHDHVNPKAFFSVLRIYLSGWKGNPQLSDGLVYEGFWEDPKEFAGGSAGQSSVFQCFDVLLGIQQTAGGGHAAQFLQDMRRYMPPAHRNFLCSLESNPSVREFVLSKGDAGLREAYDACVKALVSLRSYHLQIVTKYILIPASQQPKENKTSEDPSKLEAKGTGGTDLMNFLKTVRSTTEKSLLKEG
# Procedure: 2. Test of hIDO1 for Cytological Activity
# Changes in Hela cell kynurenine were detected by an LCMS method. With an IC50 value of a compound as an index, an inhibitory effect of the compound on IDO1 enzyme was evaluated.
# The culture medium, trypsin, and DPBS were preheated in water bath at 37° C. The culture medium was removed by sucking from cell culture, followed by cleaning the cell culture with 10 mL of DPBS; the preheated trypsin was added to the culture flask, which was revolved to make the culture flask covered by trypsin uniformly, and placed into an incubator at 37° C. with 5% CO2 for digestion for 1-2 minutes; 10-15 mL of the culture medium was used to suspend cells each T150, followed by centrifugation at 800 rpm for 5 minutes. 10 mL of the culture medium was used to resuspend the cells. 1 mL of the cell resuspension was pipetted, and counted with Vi-cell; the Hela cells were diluted to 5×10^5/mL with the culture medium, 80 μL of the diluted Hela cells were added to the 96-well cell plate, and incubated in the an incubator at 37° C. with 5% CO2 for 5-6 hours.
# The compound was diluted with DMSO to 1 mM, with 9 gradients, each 3-fold dilution, in duplicate. 5 μL of the already diluted compound DMSO solution was added to the compound plate containing 95 μL of the culture medium. After even mixing, 10 μL of the mixture was transferred to the cell plate.
# 10 μL of recombinant human interferon-γ was added to result in a final concentration of 100 ng/ml, to induce expression of IDO1. Incubation was carried out in the 5% CO2 incubator at 37° C. for 20 hours. 4 μL of 5% (w/v) trichloroacetic acid was added, followed by even mixing and incubation at 50° C. for 30 minutes. After centrifugation at 2400 rpm for 10 minutes, 40 μL of a supernatant was added to a 96-well V-bottom plate, followed by addition of a precipitant. Centrifugation was carried out at 4000 rpm for 10 minutes after even mixing. 100 μL of the supernatant was transferred to a new 96-well V-bottom plate. A content of kynurenine was detected through LCMS.
# A reference well to which the interferon-γ was added but no compound was added was set to have an inhibition rate of 0%, and a reference well to which no Hela cell was added was set to have an inhibition rate of 100%. Data was analyzed with XLFit 5 to calculate an IC50 value of the compound.
# [2] = Test for permeability across MDR1; format: in vitro ADME; details: dog, MDCK-MDR1
# Procedure: Test for Permeability Across MDR1
# A sample for test was dissolved in dimethyl sulfoxide (DMSO) or other suitable solvents, to be prepared into 10 mM stock solution. A suitable internal standard (IS) was dissolved in acetonitrile (ACN) or other organic solvents as a stop solution. Specific information would be described in a research report.
# Fenoterol, propranolol, and digoxin acted as low-permeability control, high-permeability control, and P-gp substrate in the present research. The stock solutions of these compounds were prepared with DMSO, stocked at 2-8° C., and valid for use within 3 months.
# (§1) In the present project, a Hank's balanced salt buffer containing 10 mM HEPES was used as a transport buffer.
# (§2) MDR1-MDCK II cells were cultivated using α-MEM culture media (α-Minimum Essential Media), with a culture condition of 37±1° C., 5% CO2, and saturated relative humidity. Afterwards, the cells were inoculated into a BD Transwell-96-well plate (BD Gentest), with an inoculation density of 2.3×10^5 cells/cm^2, then the cells were placed in a carbon dioxide incubator to be incubated for 4-7 days, and then used for a transport experiment.
# A solution to be used was placed in a 37±1° C. water bath kettle to be pre-incubated for 30 minutes. The donor solution and the receiver solution were respectively added to corresponding sides of wells of cell plate (to an apical side and a basolateral side, 75 μL and 250 μL of samples were added respectively), and experiment of bidirectional transport was started. After the addition of the samples, the cell plate was placed in a 37±1° C., 5% CO2 incubator with saturated relative humidity to be incubated for 150 minutes.
# (§3) The samples were all centrifuged at 3220 g for 10 minutes after being shaken in a vortex manner. A suitable volume of a supernatant was transferred to a sample analyzing plate. If analysis was not carried out immediately after the plate was sealed, the plate was stored at 2-8° C. The analysis was carried out through a method of LC/MS/MS.
# The sample for test, fenoterol control, propranolol control, and digoxin were analyzed in a semiquantitative manner, and specific values of analytes to a peak area of the internal standard were taken as concentration of the controls.
# [3] = Test for permeability across Caco2; format: in vitro ADME; details: human, Caco-2
# Procedure: 2. Test for Permeability Across Caco2
# A sample for test was dissolved in dimethyl sulfoxide (DMSO) or other suitable solvents, to be prepared into 10 mM stock solution. A suitable internal standard
# Fenoterol, propranolol, and digoxin acted as low-permeability control, high-permeability control, and P-gp (P-glycoprotein) substrate, respectively, in the present research. The stock solutions of these compounds were prepared with DMSO, stocked at 2-8° C., and valid for use within 3 months.
# as §1
# as §2, with “Caco-2” for “MDR1-MDCK II”, “MEM” for “α-MEM”, “(Minimum” for “(α-Minimum”, “plate,” for “plate (BD Gentest),”, “1×10^5” for “2.3×10^5”, “21-28” for “4-7”
# The sample for test and digoxin with donation concentration of 2 μM were administered in two directions (direction A-B and direction B-A), each in duplicate. Fenoterol and propranolol each with test concentration of 2 μM were administered in a single direction (direction A-B), each in duplicate.
# A solution to be used was placed in a 37±1° C. water bath kettle to be pre-incubated for 30 minutes. The donor solution and the receiver solution were respectively added to corresponding sides of well of cell plate (to each apical sides and each basolateral sides, 75 μL and 250 μL of samples were added respectively), and experiment of bidirectional transport was started. After addition of the samples, the cell plate was placed in a 37±1° C., 5% CO2 incubator with saturated relative humidity to be incubated for 120 minutes.
# as §3
# The sample for test, the fenoterol control, propranolol control, and digoxin were analyzed in a semiquantitative manner, and specific values of analytes to a peak area of the internal standard were taken as concentration of the controls.
compound,measurement,setting,value
NS(=O)(=O)NCCOc1nonc1/C(=N/O)Nc1ccc(F)c(Br)c1 [Compound 0015],IC50,[1],14 nM
same,"Papp A→B at 150 min, 2 µM",[2],1.76 ×10⁻⁶ cm/s
same,"Papp B→A at 150 min, 2 µM",[2],13.6 ×10⁻⁶ cm/s
NS(=O)(=O)NCCSc1nonc1/C(=N/O)Nc1ccc(F)c(Br)c1 [Compound 0117],IC50,[1],5.85 nM
same,"Papp A→B at 150 min, 2 µM",[2],3.2 ×10⁻⁶ cm/s
same,"Papp B→A at 150 min, 2 µM",[2],11.3 ×10⁻⁶ cm/s
same,"Papp A→B at 120 min, 2 µM",[3],2.97 ×10⁻⁶ cm/s
same,"Papp B→A at 120 min, 2 µM",[3],12.2 ×10⁻⁶ cm/s
CC(=O)NCCSc1nonc1/C(=N/O)Nc1ccc(F)c(Br)c1 [Compound 0227],IC50,[1],3.1 nM
same,"Papp A→B at 150 min, 2 µM",[2],12.5 ×10⁻⁶ cm/s
same,"Papp B→A at 150 min, 2 µM",[2],18 ×10⁻⁶ cm/s
NC(=O)NCCSc1nonc1/C(=N/O)Nc1ccc(F)c(Br)c1 [Compound 0231],IC50,[1],4.35 nM
same,"Papp A→B at 150 min, 2 µM",[2],3.79 ×10⁻⁶ cm/s
same,"Papp B→A at 150 min, 2 µM",[2],17.9 ×10⁻⁶ cm/s
same,"Papp A→B at 120 min, 2 µM",[3],2.58 ×10⁻⁶ cm/s
same,"Papp B→A at 120 min, 2 µM",[3],20.1 ×10⁻⁶ cm/s
"NS(=O)(=O)NCCNc1nonc1C(=NO)Nc1ccc(F)c(Br)c1 [Compound 360, INCB024360, reference compound]","Papp A→B at 150 min, 2 µM",[2],1.61 ×10⁻⁶ cm/s
same,"Papp B→A at 150 min, 2 µM",[2],13.3 ×10⁻⁶ cm/s
same,"Papp A→B at 120 min, 2 µM",[3],0.39 ×10⁻⁶ cm/s
same,"Papp B→A at 120 min, 2 µM",[3],19.6 ×10⁻⁶ cm/s
